Results from patent publication US11434492B2, “Ribosome-mediated incorporation of peptides and peptidomimetics” (Arizona Board of Regents on behalf of Arizona State …, priority 2015, dated 2022).

What was measured:
[1] = test system: modified ribosomes from clones 010328R4; test: In vitro translation: incorporation into position 49 of DHFR (pETDH49), S-30 from clone 010328R4; format: biochemical, E. coli; settings: clone 010328R4 (group 1)
Experimental: (§1) In vitro Protein Translation. Protein translation reactions were carried out in 12-2000 μL of incubation mixture containing 0.4 μL/μL of S-30 system, 100 ng/μL of plasmid, 35 mM Tris acetate, pH 7.4, 190 mM potassium glutamate, 30 mM ammonium acetate, 2 mM DTT, 0.2 mg/mL total E. coli tRNA, 3.5% PEG 6000, 20 μg/mL folinic acid, 20 mM ATP and GTP, 5 mM CTP and UTP, 100 μM amino acids mixture, 0.5 μCi/μL of ^35S-methionine for analytical purposes only and 1 μg/mL rifampicin. In the case of plasmids having a gene with a TAG codon, a suppressor tRNA was added to a concentration of 0.8 μg/μL. Reactions were carried out at 37° C. for 1 h (for 12 μL reaction mixtures) to 1.5 h (for 2000 μL reaction mixtures) and terminated by chilling on ice. Aliquots from in vitro translation mixtures were analyzed by SDS-PAGE followed by quantification of the radioactive bands by phosphorimager analysis.
The other two compounds gave about 1.5-2 times lower suppression efficiency (7-9 and 5-6%).

[2] = test system: modified ribosomes from clone 010326R6; test: In vitro translation: suppression of TAG codon at position 66 of GFP (pETGFP66), S-30 from clone 010326R6; format: biochemical, Escherichia coli
Experimental: as §1
The free amino acids both have λex in the range 296-302 nm but the λem of 7 is somewhat red-shifted compared to that of 6. […] As a negative control, wild-type GFP synthesis from the modified mRNA in the presence of nonacylated tRNACUA was measured for each experiment. The amounts of GFP produced were quantified with a phosphoimager, which monitored the incorporation of ^35S-methionine into proteins. […]

[3] = test system: modified ribosomes (23S rRNA modified); test: In vitro translation: suppression of UAG codon at position 10 of DHFR mRNA, S-30 systems having modified ribosomes; format: biochemical, E. coli; settings: position 10 of E. coli DHFR, relative to wild-type DHFR = 100
Experimental: Preparation of Aminoacyl-tRNACUAs. The activation of suppressor tRNACUAs was carried out as described previously.^4,5 Briefly, 100-μL reaction mixture of 100 mM Na Hepes, pH 7.5, contained 1.0 mM ATP, 15 mM MgCl2, 100 μg of suppressor tRNACUA-COH, 0.5 A260 unit of N-pentenoyl-protected aminoacyl-pdCpA, 15% DMSO, and 100 units of T4 RNA ligase. The reaction mixture was incubated at 37° C. for 1.5 h and quenched by the addition of 0.1 vol of 3 M NaOAc, pH 5.2. The N-protected aminoacylated tRNA was precipitated with 3 vol of cold ethanol. The efficiency of ligation was estimated by 8% polyarylamide-7 M urea gel electrophoresis (pH 5.0).
The N-pentenoyl-protected aminoacyl-tRNACUAs were deprotected by treatment with 5 mM aqueous […] at 25° C. for 15 min. The solution was centrifuged, and the supernatant was adjusted to 0.3 M NaOAc and treated with 3 vol of cold ethanol to precipitate the aminoacylated tRNA. The tRNA pellet was collected by centrifugation, washed with 70% aq EtOH, air dried and dissolved in 20 μL of RNase free water.
Preparation of S-30 Extracts from Cells Having Modified Ribosomes. Aliquots (5-10 μL) from liquid stocks of E. coli BL-21 (DE-3) cells, harboring plasmids with a wild-type or modified rrnB gene, were placed on LB agar supplemented with 100 µg/mL of ampicillin and grown at 37° C. for 16-18 h. One colony was picked from each agar plate and transferred into 3 mL of LB medium supplemented with 100 μg/mL of ampicillin and 0.5 mM IPTG.
as §1
Incorporation of Dipeptides 2, 3 and 4 into DHFR Using the Modified Ribosomes. Initially, glycylphenylalanine (2) was chosen to screen the selected modified ribosomes for their ability to incorporate a dipeptide into DHFR. It was anticipated that minimal steric hindrance and more flexibility at the N-terminus of the dipeptide (a glycine residue) would enable optimal positioning of the amine for a nucleophilic attack in the PTC of the modified ribosomes. A modified DHFR construct, having a TAG codon in position 10 (pETDH10 plasmid) was used for the incorporation of glycylphenylalanine.
The suppression efficiencies were expressed relative to the wild-type DHFR synthesis. As a negative control, wild-type DHFR synthesis in the presence of nonacylated-tRNACUA was measured for each experiment. The amounts of DHFR produced were quantified with a phosphoimager, which monitored the incorporation of ^35S-methionine into DHFR. Using glycylphenylalanyl-tRNACUA, S-30 preparations having the modified ribosomes from clone groups 1, 2, 3 and 9 produced full length DHFR in ˜9% yields relative to the wild-type DHFR synthesis (Table 3). The modified ribosomes from clone groups 4-8 incorporated glycylphenylalanine (2) with low yields (˜2-4%). For dipeptide 2, best incorporation yields (up to 12%) were obtained by S-30 system having modified ribosomes from clone group 9 (2057AGUGAGA2063 and 2502AUCCGA2507).

[4] = Fluorescence emission of dipeptidomimetics and of proteins containing them; format: physicochemical; settings: as stated for comparison of 6 and wild-type BFP
Source text: Further, we prepared a modified DHFR having dipeptidomimetic 6 at position 10 at larger scale to investigate the fluorescence intensity of 6 in protein. The fluorescence emission spectra of wild-type DHFR and modified DHFR having 6 at position 10 were compared (FIG. 8) at 302 nm excitation wavelength.
Fluorescence Emission of an Artificial BFP Having Dipeptidomimetic 6. We designed fluorescent dipeptidomimetics 6-10 as stable analogues of GFP-chromophore. We anticipated their use to create artificial fluorescent proteins; to verify the same we replaced the chromophore of BFP with dipeptidomimetic 6 in order to prepare an artificial fluorescent protein. The fluorescence emission of 6 is near blue region of visible light spectrum (˜400 nm). Therefore, we compared the fluorescence emission intensity of artificial FP (artificial BFP 1) having 6 at position 66 with wild-type BFP, which has a fluorescence emission ˜450 nm. […] Wild-type and artificial BFP were prepared in a larger scale in a cell free translation system for fluorescence measurements.
A modified BFP construct, having a TAG codon in position 66 and a suppressor tRNACUA activated with 6 were used for the preparation of artificial BFP 1. […] As illustrated from FIG. 11, fluorescence intensity of artificial BFP 1 (emission maximum ˜375 nm) having 6 in position 66 is 20-fold greater than the wild-type BFP at similar protein concentrations. […]

Row | SMILES | suppression efficiency (full-length DHFR synthesis relative to wild-type) [1] | suppression yield (full length GFP) relative to wild-type GFP synthesis [2] [%] | Suppression efficiency in different S-30 systems, having modified ribosomes (%) ([3]; clone group 1) | Suppression efficiency in different S-30 systems, having modified ribosomes (%) ([3]; clone group 9) | fluorescence emission [4] [nm]
1 | C=CCCC(=O)N[C@H]1CCCCN(CC(=O)OC2C(COP(=O)(O)OC3CC(n4ccc(N)nc4=O)OC3COP(=O)(O)O)OC(n3cnc4c(N)ncnc43)C2O)C1=O (stereo partly drawn) [cyclic peptidomimetic 145, (S)-2-(2-Oxo-3-(pent-4-enamido)azepan-1-yl)acetyl-pdCpA] | 11-13% |  |  |  | 
2 | COc1ccc(-c2oc(CN)nc2C(=O)O)cc1 [dipeptidomimetic 6] |  | ~6.5 | 10.2 ± 1.7 | 9.8 ± 2.1 | ~400
